According to patent US11066414B2, “Cot modulators and methods of use thereof” (Gilead Sciences, Inc., priority 2015, dated 2021):
pEC50, pIC50: −log10 of the molar value. Where two headings read alike, the source gives them in different places.

Columns and labels:
Human Cot = Human Cot (Homo sapiens (Human), UniProt P41279); assay: High Throughput Cot Biochemical Assay; conditions: for IC50/EC50 [nM]: IC50 (Cot): first value of the cell IC50/EC50, recombinant human Cot catalytic domain, TR-FRET
TNFα = assay: Cot Monocyte TNFα Cell Based Assay; conditions: for pEC50: Homo sapiens, Monocyte; for IC50/EC50 [nM]: EC50 (TNFα): second value of the cell IC50/EC50, LPS-stimulated human monocytes, TNFα by TR-FRET
EGFR = EGFR (Homo sapiens (Human), UniProt P00533); assay: High Throughput EGFR Biochemical Assay; conditions: Human EGFR cytoplasmic domain, TR-FRET
Protocol: Example 42: High Throughput EGFR Biochemical Assay
EGFR activity was measured using KinEASE (Cisbio), a time-resolved fluorescence resonance energy transfer (TR-FRET) immunoassay. In this assay, EGFR-catalyzes the phosphorylation of a universal Tyrosine kinase peptide substrate labeled with XL665. Europium conjugated phosphor-tyrosine specific antibody binds the resulting phosphorylated peptide. Formation of phosphorylated peptide is quantified by TR-FRET with Europium as the donor and XL665 the acceptor. The assay was performed in two main steps. The first step is the kinase reaction step and the second step is the detection step with TR-FRET reagents. In brief, test compounds 1:3 serially diluted in DMSO were delivered into Corning white, low volume, non-binding 384 well plates using the Echo 550 acoustic liquid dispenser (Labcyte®). […] After 60 min of incubation at room temperature, 10 μL of Stop and Detect Solution (1:400 Europium Cryptate labeled anti-phosphorylated peptide antibody solution and 125 nM strepavidin-XL665 Tracer in a 50 mM Hepes pH 7.0 detection buffer containing sufficient EDTA) was added.

[1] = IC50 HTRF, Cot HTRF (TR-FRET) biochemical assay
[2] = read-out: EC50 TNF, LPS-stimulated human monocytes, TNFα

Sequence of Human Cot (P41279 30-397): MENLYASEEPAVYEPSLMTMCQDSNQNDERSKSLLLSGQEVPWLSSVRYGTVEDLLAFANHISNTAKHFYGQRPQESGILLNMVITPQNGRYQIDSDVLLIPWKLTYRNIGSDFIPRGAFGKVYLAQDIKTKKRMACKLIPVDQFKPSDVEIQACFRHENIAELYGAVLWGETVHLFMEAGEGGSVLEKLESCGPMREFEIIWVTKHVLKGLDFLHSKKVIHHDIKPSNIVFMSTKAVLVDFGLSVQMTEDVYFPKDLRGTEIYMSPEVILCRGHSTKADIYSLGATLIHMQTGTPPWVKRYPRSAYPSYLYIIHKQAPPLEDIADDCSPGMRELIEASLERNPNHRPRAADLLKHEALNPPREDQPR
Sequence of EGFR (P00533 669-1210): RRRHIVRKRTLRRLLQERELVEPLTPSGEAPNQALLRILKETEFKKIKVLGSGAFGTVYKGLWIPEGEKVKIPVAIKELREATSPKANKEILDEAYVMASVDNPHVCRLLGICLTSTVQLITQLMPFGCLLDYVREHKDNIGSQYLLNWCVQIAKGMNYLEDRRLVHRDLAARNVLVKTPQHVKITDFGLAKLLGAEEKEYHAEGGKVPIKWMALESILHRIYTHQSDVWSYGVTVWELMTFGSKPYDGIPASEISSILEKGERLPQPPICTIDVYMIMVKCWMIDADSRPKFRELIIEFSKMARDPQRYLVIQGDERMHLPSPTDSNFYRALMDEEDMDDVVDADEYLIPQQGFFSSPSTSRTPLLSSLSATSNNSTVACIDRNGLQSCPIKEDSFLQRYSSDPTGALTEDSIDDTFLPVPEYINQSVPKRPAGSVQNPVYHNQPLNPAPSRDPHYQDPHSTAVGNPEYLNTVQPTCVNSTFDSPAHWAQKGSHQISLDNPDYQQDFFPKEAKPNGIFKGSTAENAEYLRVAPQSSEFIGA

SMILES | pIC50 (Human Cot; [1]) | IC50/EC50 [nM]: IC50 (Cot) (Human Cot; 400 μM ATP) | pEC50 (TNFα; [2]) | IC50/EC50 [nM]: EC50 (TNFα) (TNFα) | pIC50 (EGFR) | pIC50 (Human Cot; read-out: IC50 HTRF, Cot HTRF (TR-FRET) biochemical assay) | pIC50 (Human Cot; IC50 HTRF, Cot HTRF (TR-FRET KinEASE) biochemical assay, 400 μM ATP) | pEC50 (TNFα; read-out: EC50 TNF, LPS-stimulated human monocytes, TNFα TR-FRET)
CCN1CCC(n2cc([C@@H](Nc3cc(Cl)c4ncc(C#N)c(Nc5ccc(F)c(Cl)c5)c4c3)c3cccnc3)nn2)CC1 [Example 362, (S)-8-chloro-4-((3-chloro-4-fluorophenyl)amino)-6-(((1-(1-ethylpiperidin-4-yl)-1H-1,2,3-triazol-4-yl)(pyridin-3-yl)methyl)amino)-quinoline-3-carbonitrile] | 9.00 | 1 nM | 7.34 | 46 nM | 5.40 |  |  | 
Cn1cc([C@@H](Nc2cc(Cl)c3ncc(C#N)c(Nc4ccc(F)c(Cl)c4)c3c2)c2cccnc2)nn1 [Example 406, (S)-8-chloro-4-((3-chloro-4-fluoro-phenyl)amino)-6-(((1-methyl-1H-1,2,3-triazol-4-yl)(pyridin-3-yl)-methyl)amino)quinoline-3-carbonitrile] |  | 3 nM | 6.99 | 102 nM | < 5.00 | 8.52 |  | 
CC(C)(C)CNc1c(C#N)cnc2c(Cl)cc(N[C@H](c3cn(C4(C(F)(F)F)CC4)nn3)c3csc4cnccc34)cc12 [Example 741, (S)-8-chloro-4-(neopentylamino)-6-((thieno[2,3-c]pyridin-3-yl(1-(1-(trifluoromethyl)cyclopropyl)-1H-1,2,3-triazol-4-yl)methyl)amino)quinoline-3-carbonitrile] | 8.22 |  | 6.92 |  |  |  |  | 
CC(=O)c1cc(N[C@H](c2cn(C3(C(F)F)CC3)nn2)c2ccc(F)nc2C)cc2c(NCC(C)(C)C)c(C#N)cnc12 [Example 981, (S)-8-acetyl-6-(((1-(1-(difluoromethyl)cyclopropyl)-1H-1,2,3-triazol-4-yl)(6-fluoro-2-methylpyridin-3-yl)methyl)amino)-4-(neopentylamino)quinoline-3-carbonitrile] |  |  |  |  |  |  | 8.40 | 7.70
CCN1CCC(n2cc([C@@H](Nc3cc(Cl)c4ncc(C#N)c(Nc5ccc(F)c(Cl)c5)c4c3)c3cscc3Cl)nn2)CC1 [Example 371, (S)-8-chloro-4-((3-chloro-4-fluorophenyl)amino)-6-(((4-chlorothiophen-3-yl)(1-(1-ethylpiperidin-4-yl)-1H-1,2,3-triazol-4-yl)methyl)-amino)quinoline-3-carbonitrile] | 8.70 |  | 6.76 |  |  |  |  | 
Cn1ncc2cccc([C@H](Nc3cc(Cl)c4ncc(C#N)c(NCC(C)(C)C)c4c3)c3cn(C4(C(F)(F)F)CC4)nn3)c21 [Example 521, (S)-8-chloro-6-(((1-methyl-1H-indazol-7-yl)(1-(1-(trifluoromethyl)-cyclopropyl)-1H-1,2,3-triazol-4-yl)methyl)amino)-4-(neopentylamino)-quinoline-3-carbonitrile] | 7.57 |  | 6.59 |  |  |  |  | 
